Assay results from patent US9315522B2, “Antibacterial compounds” (JANSSEN SCIENCES IRELAND UC, priority 2012, dated 2016).
Values after ≈ are worked out from the molar mass of the structure shown.

Experiments:
[1] = Thermodynamic solubility (pH solubility profiling); assay type: physicochemical; settings: thermodynamic from solid
Protocol: The pH solubility profiling was carried out at ambient temperature for a period of 4 days. A saturation solubility study was carried out in order to determine maximum solubility in a particular buffer solution. The compound was added to respective buffer solution until saturation point is reached. This was followed by shaking the flask for 4 days at ambient temperature. After 4 days, the solutions were filtered and injected on UPLC and the concentration was determined using a generic HPLC method.

[2] = tested on: Staphylococcus aureus ATCC 29213; experiment: Antibacterial susceptibility testing, IC90 determination (STA); assay type: cell-based; settings: Staphylococcus aureus, ATCC29213, Staphylococcus aureus ATCC 29213, broth microdilution, resazurin; read-out: STA (361.159) IC90
Summary of the method: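 S. aureus ATCC 29213 tested by broth microdilution in Mueller-Hinton broth, 5×10^5 CFU/ml, two-fold compound dilutions typically 63 to 0.49 μM, 1.25% DMSO, 16-20 h at 35° C. Growth read fluorometrically with resazurin (ex 540/em 590 nm); IC90 in μg/ml is 90% growth-inhibitory concentration.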

S. aureus = experiment: Antibacterial susceptibility testing, IC90 determination with 10% human serum (STA + 10% HS); assay type: cell-based, Staphylococcus aureus; settings: Staphylococcus aureus, human serum at final concentration of 10%, read-out: STA + 10% HS (361.169) IC90
Summary of the method: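 Broth microdilution in Mueller-Hinton broth with 10% human serum, 5×10^5 CFU/ml S. aureus, two-fold compound dilutions (typically 63 to 0.49 μM), 1.25% DMSO, 16-20 h at 35° C. Growth read fluorometrically with resazurin (ex 540/em 590 nm); IC90 in μg/ml is the 90% growth-inhibitory concentration.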

[3] = In vivo pharmacokinetic and oral bioavailability in mouse; design: species or system male Swiss mice
Protocol: The in vivo pharmacokinetics and oral bioavailability of the compound of the examples were/are investigated in male Swiss mice (fed) following single intravenous (i.v.) bolus and oral (p.o.) administration. For the i.v. and p.o. solution formulations, the compound was/is dissolved in a 20% HP-β-CD solution. The pH of the formulations was/is around pH 4. All i.v. formulations were isotonic.

[4] = tested on: S. aureus strain ATCC 29213; experiment: In vivo efficacy, peritonitis model of S. aureus infection; settings: female Swiss albino mice, IP infection, inoculum 8.9 log10, PO, QD, Sol 20% CD + 1HCl, 3 days post-infection
Source text: The concept of studying the in vivo effect of an antibacterial compound by treating intraperitoneally infected mice was introduced in 1911 for optochin against pneumococci (Morgenroth and Levy, 1911). The popularity of the model comes from the ease of its use with short-duration experiments, reproducible infections and simple end-points.
Methicillin-sensitive S. aureus strain ATCC 29213 was used to infect female Swiss albino mice. A Brain Heart Infusion (BHI) broth bacterial culture was inoculated the day before infection, incubated at 37° C. overnight and diluted in fresh BHI broth to the desired concentration. Intraperitoneal (i.p.) injection of ˜5×10^9 colony forming units (CFU) was performed in either of the lateral lower quadrants of the abdomen. After inoculation, mice were kept in their cages under daily observation for development of signs of infection or death. For the treatment of mice, the p.o. route was used and each mouse was treated individually by gavage. Example of Cpd No. 48 was formulated as a 20% HP-β-cyclodextrin and example of Cpd No. 38 was formulated as a water/Tween-20 suspension. The parameter used for monitoring the course of infection and the effect of treatment was death or survival of the animals over 3 days post-infection. As death could also be due to toxic side effects, a non-infected control group of 3 mice, treated with the highest dose of the compound tested, was included.

[5] = Cytotoxicity MTT assay (HELAM); assay type: cell-based, Human; settings: human, HelaM cells, read-out: HELAM (222.125) CC50
Summary of the method: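 HelaM cells exposed 72 h at 37° C to serial dilutions, typically 25 to 0.8 μM, in 0.5% DMSO. MTT formazan dissolved in 2-propanol, absorbance at 540 nm minus 690 nm; CC50 is concentration halving viability.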

[6] = male, Swiss, plasma, iv, 2.5 mg/kg, 20% HP-β-cyclodextrin
[7] = male, Swiss, plasma, po, 10 mg/kg, 20% HP-β-cyclodextrin

Structure (SMILES): O=C1CNCc2cc(/C=C/C(=O)N3CC4C=C(c5nccs5)CC4C3)cnc2N1 (stereo not drawn) [compound 48]
- solubility thermodynamic at 4 days ([1]; aqueous buffer, Buffer pH 4, ambient temperature): 440 µg/mL (≈ 1.08 mM)
- solubility thermodynamic at 4 days ([1]; aqueous buffer, Buffer pH 7.4, ambient temperature): > 1220 µg/mL
- solubility thermodynamic at 4 days ([1]; aqueous with cosolvent or surfactant or cyclodextrin, 10% HP-β-CD buffer pH 4, ambient temperature): > 2470 µg/mL
- solubility thermodynamic at 4 days ([1]; aqueous with cosolvent or surfactant or cyclodextrin, 10% HP-β-CD buffer pH 7.4, ambient temperature): > 1380 µg/mL
- solubility thermodynamic at 4 days ([1]; aqueous with cosolvent or surfactant or cyclodextrin, 20% HP-β-CD buffer pH 4, ambient temperature): > 4720 µg/mL
- solubility thermodynamic at 4 days ([1]; aqueous with cosolvent or surfactant or cyclodextrin, 20% HP-β-CD buffer pH 7.4, ambient temperature): > 2410 µg/mL
- solubility thermodynamic at 4 days ([1]; pH 2, simulated gastric fluid, 0.01N HCl, ambient temperature): > 2560 µg/mL
- IC90 [2]: 0.24 µg/mL (≈ 0.000589 mM)
- IC90 (S. aureus): 0.21 µg/mL
- Vdz ([3]; i.v., 2.5 mg/kg, 20% HP-β-cyclodextrin): 2.8 L/kg
- AUC(0-inf) [3, 6]: 1600 ng·h/mL
- C0 [3, 6]: 4560 ng/mL
- half-life ([3]; male, Swiss, plasma, iv, 2.5 mg/kg, 20% HP-β-cyclodextrin, read-out: Half life (t1/2) (converted)): 1.2 h
- clearance ([3]; male, Swiss, plasma, iv, 2.5 mg/kg, 20% HP-β-cyclodextrin, read-out: Plasma clearance Cl (converted)): 26.7 mL/min/kg
- AUC(0-inf) [3, 7]: 2050 ng·h/mL
- Cmax [3, 7]: 483 ng/mL
- Tmax [3, 7]: 1.3 h
- bioavailability ([3]; male, Swiss, plasma, po, p.o. 10 mg/kg vs i.v. 2.5 mg/kg): 32%
- % Survival ([4]; 1 mpk): 57%
- % Survival ([4]; 5 mpk): 100%
- CC50 at 72 h [5]: > 10.2 µg/mL
